Source: patent US7229987B2, “Multicyclic compounds for use as melanin concentrating hormone antagonists in the treatment of obesity and diabetes” (Eli Lilly and Company, priority 2002, dated 2007)

`CN(C)CCCCCCCOc1ccc(-c2nnc(CSCCOc3ccccc3)o2)cc1` [Example 71, dimethyl-(7-{4-[5-(2-phenoxy-ethylsulfanylmethyl)-[1,3,4]oxadiazol-2-yl]-phenoxy}-heptyl)-amine] gave a melting point of 39 to 40 °C.
For `c1ccc(OCCSCc2nnc(-c3ccc(OCCN4CCCCC4)cc3)o2)cc1` [Example 72, 1-(2-{4-[5-(2-phenoxy-ethylsulfanylmethyl)-[1,3,4]oxadiazol-2-yl]-phenoxy}-ethyl)-piperidine], the melting point was 70 °C.
For `CC(C)N(CCOc1ccc(-c2nnc(CSCCOc3ccccc3)o2)cc1)C(C)C` [Example 73, diisopropyl-(2-{4-[5-(2-phenoxy-ethylsulfanylmethyl)-[1,3,4]oxadiazol-2-yl]-phenoxy}-ethyl)-amine], the melting point was 42 to 45 °C.
For `c1ccc(OCCSCc2nnc(-c3ccc(OCCN4CCOCC4)cc3)o2)cc1` [Example 74, 4-(2-{4-[5-(2-phenoxy-ethylsulfanylmethyl)-[1,3,4]oxadiazol-2-yl]-phenoxy}-ethyl)-morpholine], the melting point was 70 to 72 °C.
For `c1ccc(OCCSCc2nnc(-c3ccc(OCCCN4CCCCC4)cc3)o2)cc1` [Example 75, 1-(3-{4-[5-(2-phenoxy-ethylsulfanylmethyl)-[1,3,4]oxadiazol-2-yl]-phenoxy}-propyl)-piperidine], the melting point was 65 °C.
Work on `c1ccc(OCCSCc2nnc(-c3ccc(OCCN4CCCC4)cc3)o2)cc1` [Example 76, 2-(2-phenoxy-ethylsulfanylmethyl)-5-[4-(2-pyrrolidin-1-yl-ethoxy)-phenyl]-[1,3,4]oxadiazole] yielded a melting point of 65 °C.
In the case of `CNCCCOc1ccc(-c2nnc(CSCCOc3ccccc3)o2)cc1` [Example 77, methyl-(3-{4-[5-(2-phenoxy-ethylsulfanylmethyl)-[1,3,4]oxadiazol-2-yl]-phenoxy}-propyl)-amine], the melting point is reported as 40 to 44 °C.
`CCN(CC)CCCOc1ccc(-c2nnc(CSCCOc3ccccc3)o2)cc1` [Example 78, diethyl-(3-{4-[5-(2-phenoxy-ethylsulfanylmethyl)-[1,3,4]oxadiazol-2-yl]-phenoxy}-propyl)-amine] gave a melting point of 27 to 31 °C.
Work on `c1ccc(OCCSCc2nnc(-c3ccc(OCCCCN4CCCC4)cc3)o2)cc1` [Example 80, 2-(2-phenoxy-ethylsulfanylmethyl)-5-[4-(4-pyrrolidin-1-yl-butoxy)-phenyl]-[1,3,4]oxadiazole] yielded a melting point of 45 °C.
`c1ccc(OCCSCc2nnc(-c3ccc(OCCCCN4CCCCC4)cc3)o2)cc1` [Example 81, 1-(4-{4-[5-(2-phenoxy-ethylsulfanylmethyl)-[1,3,4]oxadiazol-2-yl]-phenoxy}-butyl)-piperidine] showed a melting point of 57 to 62 °C.
`c1ccc(OCCSCc2nnc(-c3ccc(OCCCN4CCSCC4)cc3)o2)cc1` [Example 82, 4-(3-{4-[5-(2-phenoxy-ethylsulfanylmethyl)-[1,3,4]oxadiazol-2-yl]-phenoxy}-propyl)-thiomorpholine] gave a melting point of 85 °C.
For `c1ccc(OCCSCc2nnc(-c3ccc(OCCCN4CCCCCC4)cc3)o2)cc1` [Example 83, 1-(3-{4-[5-(2-phenoxy-ethylsulfanylmethyl)-[1,3,4]oxadiazol-2-yl]-phenoxy}-propyl)-azepane], the melting point was 50 °C.
For `NCCCOc1ccc(-c2nnc(CSCCOc3ccccc3)o2)cc1` [Example 84, 3-{4-[5-(2-phenoxy-ethylsulfanylmethyl)-[1,3,4]oxadiazol-2-yl]-phenoxy}-propylamine], the melting point was 30 to 35 °C.
`CCN(CC)CCOc1ccc(-c2nnc(CSCCOc3ccccc3)o2)cc1` [Example 85, diethyl-(2-{4-[5-(2-phenoxy-ethylsulfanylmethyl)-[1,3,4]oxadiazol-2-yl]-phenoxy}-ethyl)-amine] gave a melting point of 32 to 35 °C.
With `c1ccc(OCCSCc2nnc(-c3ccc(OCCN4CCCCCC4)cc3)o2)cc1` [Example 86, 1-(2-{4-[5-(2-phenoxy-ethylsulfanylmethyl)-[1,3,4]oxadiazol-2-yl]-phenoxy}-ethyl)-azepane] the melting point was 40 °C.
Work on `c1ccc(OCCSCc2nnc(-c3ccc(OCCCN4CCOCC4)cc3)o2)cc1` [Example 87, 4-(3-{4-[5-(2-phenoxy-ethylsulfanylmethyl)-[1,3,4]oxadiazol-2-yl]-phenoxy}-propyl)-morpholine] yielded a melting point of 65 °C.
`c1ccc(OCCSCc2nnc(-c3ccc(OCCCN4CCCC4)cc3)o2)cc1` [Example 88, 2-(2-phenoxy-ethylsulfanylmethyl)-5-[4-(3-pyrrolidin-1-yl-propoxy)-phenyl]-[1,3,4]oxadiazole] gave a melting point of 70 °C.
With `c1ccc(OCCSCc2nnc(-c3ccc(OCCCCN4CCCCCC4)cc3)o2)cc1` [Example 89, 1-(4-{4-[5-(2-phenoxy-ethylsulfanylmethyl)-[1,3,4]oxadiazol-2-yl]-phenoxy}-butyl)-azepane] the melting point was 35 to 38 °C.
`c1ccc(OCCSCc2nnc(-c3ccc(OCCN4CCSCC4)cc3)o2)cc1` [Example 90, 4-(2-{4-[5-(2-phenoxy-ethylsulfanylmethyl)-[1,3,4]oxadiazol-2-yl]-phenoxy}-ethyl)-thiomorpholine] gave a melting point of 60 °C.
Compound `c1ccc(OCCSCc2nnc(-c3ccc(OCCCCN4CCOCC4)cc3)o2)cc1` [Example 92, 4-(4-{4-[5-(2-phenoxy-ethylsulfanylmethyl)-[1,3,4]oxadiazol-2-yl]-phenoxy}-butyl)-morpholine] has a melting point of 64 to 67 °C.
For `CCN(CC)CCCCOc1ccc(-c2nnc(CSCCOc3ccccc3)o2)cc1` [Example 93, diethyl-(4-{4-[5-(2-phenoxy-ethylsulfanylmethyl)-[1,3,4]oxadiazol-2-yl]-phenoxy}-butyl)-amine], the melting point was 35 to 38 °C.
`c1ccc(OCCSCc2nnc(-c3ccc(OCCCCN4CCSCC4)cc3)o2)cc1` [Example 94, 4-(4-{4-[5-(2-phenoxy-ethylsulfanylmethyl)-[1,3,4]oxadiazol-2-yl]-phenoxy}-butyl)-thiomorpholine] gave a melting point of 58 °C.
Compound `CN1CCCC1CCOc1ccc(-c2nnc(CSCCOc3ccccc3)o2)cc1` (centres unmarked) [Example 96, 2-{4-[2-(1-methyl-pyrrolidin-2-yl)-ethoxy]-phenyl}-5-(2-phenoxy-ethylsulfanylmethyl)-[1,3,4]oxadiazole] has a melting point of 46 to 50 °C.
With `CN1CCCC(Oc2ccc(-c3nnc(CSCCOc4ccccc4)o3)cc2)CC1` (centres unmarked) [Example 97, 1-methyl-4-{4-[5-(2-phenoxy-ethylsulfanylmethyl)-[1,3,4]oxadiazol-2-yl]-phenoxy}-azepane] the melting point was 60 to 61 °C.
Compound `c1ccc(OCCSCc2nnc(-c3ccc(OCc4ccncc4)cc3)o2)cc1` [Example 98, 4-{4-[5-(2-phenoxy-ethylsulfanylmethyl)-[1,3,4]oxadiazol-2-yl]-phenoxymethyl}-pyridine] has a melting point of 80 to 90 °C.
In the case of `c1ccc(OCCSCc2nnc(-c3ccc(OCc4ccccn4)cc3)o2)cc1` [Example 99, 2-{4-[5-(2-phenoxy-ethylsulfanylmethyl)-[1,3,4]oxadiazol-2-yl]-phenoxymethyl}-pyridine], the melting point is reported as 115 °C.
With `c1ccc(OCCSCc2nnc(-c3ccc(OCc4cccnc4)cc3)o2)cc1` [Example 100, 3-{4-[5-(2-phenoxy-ethylsulfanylmethyl)-[1,3,4]oxadiazol-2-yl]-phenoxymethyl}-pyridine] the melting point was 111 to 112 °C.
With `NC(=O)Nc1ccc(-c2nnc(CSCCOc3ccccc3)o2)cc1` [Example 101, {4-[5-(2-phenoxy-ethylsulfanylmethyl)-[1,3,4]oxadiazol-2-yl]-phenyl}-urea] the melting point was > 220 °C.
For `O=C(Nc1ccc(-c2nnc(CSCCOc3ccccc3)o2)cc1)N1CCCC1` [Example 103, pyrrolidine-1-carboxylic acid {4-[5-(2-phenoxy-ethylsulfanylmethyl)-[1,3,4]oxadiazol-2-yl]-phenyl}-amide], the melting point was 184 to 185 °C.
Compound `O=C(NCCN1CCCC1)Nc1ccc(-c2nnc(CSCCOc3ccccc3)o2)cc1.O=C(O)C(=O)O` [Example 106, 1-{4-[5-(2-phenoxy-ethylsulfanylmethyl)-[1,3,4]oxadiazol-2-yl]-phenyl}-3-(2-pyrrolidin-1-yl-ethyl)-urea oxalate] has a melting point of 111 to 115 °C.
Compound `O=C(NCCN1CCCCC1)Nc1ccc(-c2nnc(CSCCOc3ccccc3)o2)cc1` [Example 107, 1-{4-[5-(2-phenoxy-ethylsulfanylmethyl)-[1,3,4]oxadiazol-2-yl]-3-phenyl}-3-(2-piperidin-1-yl-ethyl)-urea] has a melting point of 126 to 128 °C.
For `Nc1ccc(-c2nnc(CSCCOc3ccccc3)o2)cc1` [Example 116, 4-[5-(2-phenoxy-ethylsulfanylmethyl)-[1,3,4]oxadiazol-2-yl]-phenylamine], the melting point was 126 to 130 °C.
Work on `CN(C)CCNC(=S)Nc1ccc(-c2nnc(CSCCOc3ccccc3)o2)cc1` [Example 117, 1-(2-dimethylamino-ethyl)-3-{4-[5-(2-phenoxy-ethylsulfanylmethyl)-[1,3,4]oxadiazol-2-yl]-phenyl}-thiourea] yielded a melting point of 155 to 158 °C.
For `CN(C)CCCNC(=S)Nc1ccc(-c2nnc(CSCCOc3ccccc3)o2)cc1` [Example 118, 1-(3-dimethylamino-propyl)-3-{4-[5-(2-phenoxy-ethylsulfanylmethyl)-[1,3,4]oxadiazol-2-yl]-phenyl}-thiourea], the melting point was 136 to 139 °C.
With `CN(C)CCCOc1ccc(-c2nnc(CSCCOc3ccccc3)n2Cc2ccccc2)cc1.O=C(O)C(=O)O` [Example 246, (3-{4-[4-benzyl-5-(2-phenoxyethylsulfanylmethyl)-4H-[1,2,4]triazol-3-yl]-phenoxy}-propyl)-dimethyl-amine, oxalic acid salt] the melting point was 88 to 92 °C.
Work on `CN(C)CCCOc1ccc(-c2nnc(CSCCOc3ccccc3)n2-c2ccccc2)cc1.O=C(O)C(=O)O` [Example 247, Dimethyl-(3-{4-[5-(2-phenoxy-ethylsulfanylmethyl)-4-phenyl-4H-[1,2,4]triazol-3-yl]-phenoxy}-propyl)-amine, oxalic acid salt] yielded a melting point of 120 to 123 °C.
`CN(C)CCCOc1ccc(-c2nnc(-c3ccc(Oc4ccccc4)cc3)o2)cc1` [Example 248, Dimethyl-(3-{4-[5-(4-phenoxy-phenyl)-[1,3,4]oxadiazol-2-yl]-phenoxy}-propyl)-amine] gave a melting point of 95 °C.
Compound `CN(C)CCNC(=O)Nc1ccc(-c2cnc(CSCCOc3ccccc3)o2)cc1.O=C(O)/C=C\C(=O)O` [Example 250, 1-(2-Dimethylamino-ethyl)-3-{4-[2-(2-phenoxy-ethylsulfanylmethyl)-oxazol-5-yl]-phenyl}-urea maleate] has a melting point of 105 to 107 °C.
